Laboratory results published in patent US10577374B2, “Bruton's tyrosine kinase inhibitors” (priority 2009, dated 2020).

Target: BTK (Homo sapiens (Human), UniProt Q06187)
Assay: In vitro BTK kinase assay: BTK-POLYGAT-LS ASSAY
Assay type: biochemical
Settings: read-out: IC50 (10 uM ATP), polyGAT 100 nM, BTK 0.25 nM

Sequence of BTK (Q06187 whole entry): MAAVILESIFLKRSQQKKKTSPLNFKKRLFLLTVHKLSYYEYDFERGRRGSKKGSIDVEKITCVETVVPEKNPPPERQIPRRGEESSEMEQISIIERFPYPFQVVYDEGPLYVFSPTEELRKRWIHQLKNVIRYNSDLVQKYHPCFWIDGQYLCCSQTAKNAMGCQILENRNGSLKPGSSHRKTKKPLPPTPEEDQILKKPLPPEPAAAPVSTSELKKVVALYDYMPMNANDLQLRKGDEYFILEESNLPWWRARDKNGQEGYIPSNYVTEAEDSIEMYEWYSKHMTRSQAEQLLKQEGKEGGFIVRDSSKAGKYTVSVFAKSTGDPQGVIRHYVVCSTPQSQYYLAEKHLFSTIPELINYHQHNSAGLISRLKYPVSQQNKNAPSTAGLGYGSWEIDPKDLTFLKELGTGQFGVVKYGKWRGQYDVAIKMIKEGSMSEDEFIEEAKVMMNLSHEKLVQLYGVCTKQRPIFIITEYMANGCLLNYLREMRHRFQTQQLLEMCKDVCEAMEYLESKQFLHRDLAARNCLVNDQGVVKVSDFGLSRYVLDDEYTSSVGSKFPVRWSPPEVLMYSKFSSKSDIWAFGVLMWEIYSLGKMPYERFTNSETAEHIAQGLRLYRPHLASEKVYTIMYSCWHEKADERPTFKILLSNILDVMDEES

Substance: 1-(3-(1-(methylsulfonyl)-4-(7H-pyrrolo[2,3-d]pyrimidin-4-yl)piperazin-2-yl)phenyl)-3-phenylurea [compound 128]
- IC50: > 10 µM
